Measurements as given in patent US6423834B1, “KDO aldolase and condensation reactions employed therewith” (The Scripps Research Institute, priority 1992, dated 2002).
Where two headings read alike, the source gives them in different places.

Assays:
[1] = system: KDO aldolase (EC 4.1.2.23); assay: KDO aldolase-catalyzed aldol condensation of sugars with pyruvate (kinetic and relative rate measurements via remaining pyruvate); format: biochemical, Aureobacterium barkerei strain KDO-37-2; conditions: for rel. V (relative rate of aldol condensation): pyruvate 10 mM, sugar 0.5 M, 0.1 M phosphate pH 7.5, 37° C., relative to D-arabinose
Description: (§1) Partially purified KDO aldolase simply obtained by ammonium sulfate precipitation (8.0 U/mL; 0.19 U/mg for degradation of KDO) was used in substrate-specificity studies reported herein. The KDO aldolase employed for the kinetic analysis reported herein, was further purified via DEAE sepharose and phenyl sepharose column chromatography to a specific activity of 5.7 U/mg. […] The enzymatic reaction favors the cleavage of KDO, with the equilibrium constant Keq=[pyruvate][arabinose]/KDO=9×10^−2M.
The rates for aldolase-catalyzed reactions were obtained by measuring the amount of remaining pyruvate, according the method of Kim (supra). The reactions were carried out in 0.1 M phosphate buffer (pH 7.5) containing: varied concentrations of pyruvate, 2.0, 3.33, 5, and 10 mM; varied concentrations of D-arabinose, 0.2, 0.25, 0.33, and 0.50 M in 0.5 mL of solution. Each solution was incubated at 37° C. Periodically, a small aliquot (25-100 μL) was withdrawn and mixed with an assay solution (1.4 mL) containing 0.1 M phosphate (pH 7.5) buffer, 0.3 mM NADH, and 20-30 U of L-lactate dehydrogenase. The decrease in absorbance at 340 nm was measured and converted into the amount of the unreacted pyruvate using 6220 M^−1cm^−1 for the molecular absorbance of NADH. The kinetic parameters were obtained from the Lineweaver-Burk plots.
For the relative rate measurements, the concentration of pyruvate (fluoropyruvate) and sugar were fixed at 10 mM and 0.5 M, respectively. Other conditions were the same as above.

KDO aldolase [2] = conditions: enzyme from E. coli; cited from earlier work
KDO aldolase [3] = conditions: enzyme from Aerobacter cloacae; cited from earlier work
[4] = system: KDO aldolase (EC 4.1.2.23); assay: KDO aldolase degradation (cleavage) of KDO; format: biochemical, Aureobacterium barkerei strain KDO-37-2; conditions: read-out: Km in the course of degradation
Procedure: It is disclosed herein that the Gram-positive bacterium Aureobacterium barkerei strain KDO-37-2 can be induced to contain high levels of KDO aldolase. The aldolase activity from this source was assayed according to Aminoff's method (Biochem. J. 1961, 81, 384). Two liters of culture contained 10.2 U based on the degradation of KDO. This KDO activity is 4 times and 8 times higher than the corresponding KDO activity from Escherichia coli K-12 and Aerobacter cloacae, respectively, as reported by Gharambor (supra).
as §1
With one slight modification, the incubation was carried out according to the procedure reported by Gharambor (supra). […] The enzyme activity was determined to be 1.45 U/mL for the degradation of KDO according to the method of Aminoff (Biochem. J. 1961, 81, 384). […]

[5] = Proportion of β-isomer by comparing 1H NMR spectra; format: physicochemical
Procedure: Finally, the aldol reaction with an unnatural sugar containing a fluorine atom was conducted to give 18 (19% of 19). By comparing the ^1H NMR spectra, the proportion of the β-isomer (10.71) of 18 was ca. 1.5 times higher than that of KDO (6.9%), probably due to the absence of furanose and 1<<5 lactone forms. […] (Kohlbrenner, W. E. and Fesik, S. W., J. Biol. Chem. 1985, 260, 14695.) We therefore synthesized 18 in a larger scale by combining the use of KDO aldolase and pyruvate decarboxylase, which made the workup procedure much easier.

Compound: O=C[C@@H](O)[C@H](O)[C@H](O)[C@H](O)CO [D-altrose]
- rel. V (relative rate of aldol condensation) [1]: 25%

Compound: O=C[C@H](O)[C@H](O)[C@H](O)CO [D-ribose]
- rel. V (relative rate of aldol condensation) [1]: 72%
- rel. V (KDO aldolase [2]): < 5%
- rel. V (KDO aldolase [3]): < 5%

Compound: O=C(O)C(=O)CF [fluoropyruvate]
- accepted as substrate for the condensation [1]: neither fluoropyruvate nor ketohexose was accepted

Compound: C[C@H](O)[C@@H](O)[C@@H](O)[C@H](O)C=O [L-fucose]
- rel. V (relative rate of aldol condensation) [1]: rate not detectable

Compound: O=CC[C@H](O)[C@H](O)CO [2-deoxy-D-ribose]
- rel. V (relative rate of aldol condensation) [1]: 71%

Compound: O=C[C@@H](O)[C@H](O)[C@H](O)CO [D-arabinose, reference compound]
- Vmax ([1]; condensation of D-arabinose with pyruvate, enzyme purified to 5.7 U/mg): 0.73 U/mg

Compound: O=C(O)C(=O)C[C@@H](O)[C@@H](O)[C@H](O)[C@H](O)CO [KDO, 3-deoxy-D-manno-2-octulosonic acid]
- Km [4]: 6 mM
- proportion of the β-isomer [5]: 6.9%
